Laboratory results taken from patent US20160158377A1, “BCL-XL Inhibitory Compounds and Antibody Drug Conjugates Including the Same” (AbbVie Inc., priority 2014, published 2016).
Where two headings read alike, the source gives them in different places.

Experiments:
[1] = biological target: Bcl-xL (Homo sapiens, UniProt Q07817); assay: TR-FRET Bcl-xL binding assay (competition with probe F-Bak)
Description: For the assay, test compounds were serially diluted in DMSO starting at 50 μM (2× starting concentration; 10% DMSO) and 10 μL transferred into a 384-well plate. 10 μL of a protein/probe/antibody mix was then added to each well at final concentrations listed below:
The samples were then mixed on a shaker for 1 minute and incubated for an additional 2 hours at room temperature. For each assay plate, a probe/antibody and protein/antibody/probe mixture were included as a negative and a positive control, respectively. Fluorescence was measured on the Envision (Perkin Elmer) using a 340/35 nm excitation filter and 520/525 (F-Bak) and 495/510 nm (Tb-labeled anti-his antibody) emission filters. Dissociation constants (Ki) were determined using Wang's equation (Wang, 1995, FEBS Lett. 360:111-114). The TR-FRET assay can be performed in the presence of varying concentrations of human serum (HS) or fetal bovine serum (FBS). Compounds were tested both without HS and in the presence of 1% HS.

[2] = tested on: Molt-4 human acute lymphoblastic leukemia cells; assay: Molt-4 cell viability assay; type: cell-based; conditions: 10% human serum, 48 hours, CellTiter-Glo, read-out: Molt-4 Viability EC50 (nM, 10% HS)
Description: In one exemplary set of conditions, Molt-4 (ATCC, Manassas, Va.) human acute lymphoblastic leukemia cells were plated 12,500 cells per well in 384-well tissue culture plates (Corning, Corning, N.Y.) in a total volume of 25 μL tissue culture medium supplemented with 10% human serum (Sigma-Aldrich, St. Louis, Mo.) and treated with a 3-fold serial dilution of the compounds of interest from 10 μM to 0.0005 μM. Each concentration was tested in duplicate at least 3 separate times. The number of viable cells following 48 hours of compound treatment was determined using the CellTiter-Glo® Luminescent Cell Viability Assay according to the manufacturer's recommendations (Promega Corp., Madison, Wis.). Compounds were tested in the presence of 10% HS.

[3] = in the presence of 1% human serum (HS), read-out: Bcl-xL Binding Ki (nM, 1% HS)
[4] = without human serum, read-out: Bcl-xL Binding Ki

Chain of Bcl-xL (Q07817 whole entry): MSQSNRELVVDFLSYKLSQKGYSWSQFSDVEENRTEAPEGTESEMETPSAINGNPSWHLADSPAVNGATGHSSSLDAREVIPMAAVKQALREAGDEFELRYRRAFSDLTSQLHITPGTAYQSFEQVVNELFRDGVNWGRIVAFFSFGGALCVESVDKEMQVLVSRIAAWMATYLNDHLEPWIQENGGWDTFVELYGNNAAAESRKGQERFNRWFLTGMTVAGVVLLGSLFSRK

Structure (SMILES) | Ki [1, 3] [nM] | Ki [1, 4] [nM] | EC50 [2] [nM]
Cc1c(-c2ccc(N3CCc4c(O)ccc(C(=O)Nc5nc6ccccc6s5)c4C3)nc2C(=O)O)cnn1CC12CC3(C)CC(C)(C1)CC(OCCN)(C3)C2 [Compound W3.05, 3-(1-{[3-(2-aminoethoxy)-5,7-dimethyltricyclo[3.3.1.1^3,7]dec-1-yl]methyl}-5-methyl-1H-pyrazol-4-yl)-6-[8-(1,3-benzothiazol-2-ylcarbamoyl)-5-hydroxy-3,4-dihydroisoquinolin-2(1H)-yl]pyridine-2-carboxylic acid] | 0.23 | 0.02 | 79
CNCCOC12CC3(C)CC(C)(CC(Cn4ncc(-c5ccc(-c6ccc7cccc(C(=O)Nc8nc9ccccc9s8)c7c6)nc5C(=O)O)c4C)(C3)C1)C2 [Compound W3.06, 6-[8-(1,3-benzothiazol-2-ylcarbamoyl)naphthalen-2-yl]-3-[1-({3,5-dimethyl-7-[2-(methylamino)ethoxy]tricyclo[3.3.1.1^3,7]dec-1-yl}methyl)-5-methyl-1H-pyrazol-4-yl]pyridine-2-carboxylic acid] | 0.22 | < 0.001 | 3.8
CNCCOC12CC3(C)CC(C)(CC(Cn4ncc(-c5ccc(-c6ccc7cccc(C(=O)Nc8nc9cccnc9s8)c7c6)nc5C(=O)O)c4C)(C3)C1)C2 [Compound W3.07, 3-[1-({3,5-dimethyl-7-[2-(methylamino)ethoxy]tricyclo[3.3.1.1^3,7]dec-1-yl}methyl)-5-methyl-1H-pyrazol-4-yl]-6-[8-([1,3]thiazolo[5,4-b]pyridin-2-ylcarbamoyl)naphthalen-2-yl]pyridine-2-carboxylic acid] | 0.29 | < 0.001 | 432
CNCCOC12CC3(C)CC(C)(CC(Cn4ncc(-c5ccc(-c6ccc7cccc(C(=O)Nc8nc9ncccc9s8)c7c6)nc5C(=O)O)c4C)(C3)C1)C2 [Compound W3.08, 3-[1-({3,5-dimethyl-7-[2-(methylamino)ethoxy]tricyclo[3.3.1.1^3,7]dec-1-yl}methyl)-5-methyl-1H-pyrazol-4-yl]-6-[8-([1,3]thiazolo[4,5-b]pyridin-2-ylcarbamoyl)naphthalen-2-yl]pyridine-2-carboxylic acid] | 0.013 | < 0.001 | 40
CNCCOC12CC3(C)CC(C)(CC(Cn4ncc(-c5ccc(N6CCc7c(OC)ccc(C(=O)Nc8nc9ccccc9s8)c7C6)nc5C(=O)O)c4C)(C3)C1)C2 [Compound W3.09, 6-[8-(1,3-benzothiazol-2-ylcarbamoyl)-5-methoxy-3,4-dihydroisoquinolin-2(1H)-yl]-3-[1-({3,5-dimethyl-7-[2-(methylamino)ethoxy]tricyclo[3.3.1.1^3,7]dec-1-yl}methyl)-5-methyl-1H-pyrazol-4-yl]pyridine-2-carboxylic acid] | 0.14 | < 0.001 | 3.8
CNCCOC12CC3(C)CC(C)(CC(Cn4ncc(-c5ccc(-c6ccc7nccc(C(=O)Nc8nc9ccccc9s8)c7c6)nc5C(=O)O)c4C)(C3)C1)C2 [Compound W3.11, 6-[4-(1,3-benzothiazol-2-ylcarbamoyl)quinolin-6-yl]-3-[1-({3,5-dimethyl-7-[2-(methylamino)ethoxy]tricyclo[3.3.1.1^3,7]dec-1-yl}methyl)-5-methyl-1H-pyrazol-4-yl]pyridine-2-carboxylic acid] | 0.94 | < 0.001 | 34.3
COCCNCCOC12CC3(C)CC(C)(CC(Cn4ncc(-c5ccc(N6CCc7c(OC)ccc(C(=O)Nc8nc9ccccc9s8)c7C6)nc5C(=O)O)c4C)(C3)C1)C2 [Compound W3.12, 6-[8-(1,3-benzothiazol-2-ylcarbamoyl)-5-methoxy-3,4-dihydroisoquinolin-2(1H)-yl]-3-{1-[(3-{2-[(2-methoxyethyl)amino]ethoxy}-5,7-dimethyltricyclo[3.3.1.1^3,7]dec-1-yl)methyl]-5-methyl-1H-pyrazol-4-yl}pyridine-2-carboxylic acid] | 0.051 | 0.0042 | 2.6
Cc1c(-c2ccc(N3CCc4c(C#N)ccc(C(=O)Nc5nc6ccccc6s5)c4C3)nc2C(=O)O)cnn1CC12CC3(C)CC(C)(C1)CC(OCCN)(C3)C2 [Compound W3.13, 3-(1-{[3-(2-aminoethoxy)-5,7-dimethyltricyclo[3.3.1.1^3,7]dec-1-yl]methyl}-5-methyl-1H-pyrazol-4-yl)-6-[8-(1,3-benzothiazol-2-ylcarbamoyl)-5-cyano-3,4-dihydroisoquinolin-2(1H)-yl]pyridine-2-carboxylic acid] | 6.8 | 0.013 | 2290
COCCNCCOC12CC3(C)CC(C)(CC(Cn4ncc(-c5ccc(-c6ccc7c(c6)N(C(=O)Nc6nc8ccccc8s6)CCC7)nc5C(=O)O)c4C)(C3)C1)C2 [Compound W3.14, 6-[1-(1,3-benzothiazol-2-ylcarbamoyl)-1,2,3,4-tetrahydroquinolin-7-yl]-3-{1-[(3-{2-[(2-methoxyethyl)amino]ethoxy}-5,7-dimethyltricyclo[3.3.1.1^3,7]dec-1-yl)methyl]-5-methyl-1H-pyrazol-4-yl}pyridine-2-carboxylic acid] | 0.014 | < 0.001 | 1.8
COCCNCCOC12CC3(C)CC(C)(CC(Cn4ncc(-c5ccc(-c6ccc7cccc(C(=O)Nc8nc9ccccc9s8)c7c6)nc5C(=O)O)c4C)(C3)C1)C2 [Compound W3.15, 6-[8-(1,3-benzothiazol-2-ylcarbamoyl)naphthalen-2-yl]-3-{1-[(3-{2-[(2-methoxyethyl)amino]ethoxy}-5,7-dimethyltricyclo[3.3.1.1^3,7]dec-1-yl)methyl]-5-methyl-1H-pyrazol-4-yl}pyridine-2-carboxylic acid] | 0.1 | < 0.001 | 2.5
Cc1c(-c2ccc(N3CCc4cccc(C(=O)Nc5nc6ccccc6s5)c4C3)nc2C(=O)O)cnn1CC12CC3(C)CC(C)(C1)CC(OCCNC1COC1)(C3)C2 [Compound W3.16, 6-[8-(1,3-benzothiazol-2-ylcarbamoyl)-3,4-dihydroisoquinolin-2(1H)-yl]-3-[1-({3,5-dimethyl-7-[2-(oxetan-3-ylamino)ethoxy]tricyclo[3.3.1.1^3,7]dec-1-yl}methyl)-5-methyl-1H-pyrazol-4-yl]pyridine-2-carboxylic acid] | 0.14 | < 0.001 | 3.7
Cc1c(-c2ccc(N3CCc4cccc(C(=O)Nc5nc6ccccc6s5)c4C3)nc2C(=O)O)cnn1CC12CC3(C)CC(C)(C1)CC(OCCNCCS(N)(=O)=O)(C3)C2 [Compound W3.18, 6-[8-(1,3-benzothiazol-2-ylcarbamoyl)-3,4-dihydroisoquinolin-2(1H)-yl]-3-{1-[(3,5-dimethyl-7-{2-[(2-sulfamoylethyl)amino]ethoxy}tricyclo[3.3.1.1^3,7]dec-1-yl)methyl]-5-methyl-1H-pyrazol-4-yl}pyridine-2-carboxylic acid] | 0.19 | 0.038 | 14
Cc1c(-c2ccc(N3CCc4scc(C(=O)Nc5nc6ccccc6s5)c4C3)nc2C(=O)O)cnn1CC12CC3(C)CC(C)(C1)CC(OCCN)(C3)C2 [Compound W3.19, 3-(1-{[3-(2-aminoethoxy)-5,7-dimethyltricyclo[3.3.1.1^3,7]dec-1-yl]methyl}-5-methyl-1H-pyrazol-4-yl)-6-[3-(1,3-benzothiazol-2-ylcarbamoyl)-6,7-dihydrothieno[3,2-c]pyridin-5(4H)-yl]pyridine-2-carboxylic acid] | 309 | 21 | > 10000
